From publication PMC9447362
Like-named read-outs stand apart in the source and are kept apart here.

Legend:
P4 G4 [1] = test: Protein expression from pCAG-Flag vector with P4-WT or P4-Mut in HeLa and HEK293T cells (western blotting); format: cell-based, SARS-CoV-2; settings: concentration-dependent
Vero E6 cells [2] = settings: African green monkey
in vitro = settings: African green monkey
RNA with P4 G4 = test: Cell-based RNA replication assays with SARS-CoV-2 RdRp (nsp12, nsp7, nsp8) in HEK293T cells, qRT-PCR; settings: compared with P4-Mut, dose-dependent
Source text: Cell-based RNA replication assay system was applied[43]–[45]. The plasmids nsp12, nsp7 and nsp8 were used to express codon-optimized Flag-nsp12, Flag-nsp7 and Flag-nsp8, respectively, all of which contain a Flag tag at the C-terminus. To generate the SARS-CoV-2 transcripts with P4 G4 site for RNA replication assays, 5’ untranslated region (UTR)-P4 G4 -3’ UTR was first synthesized, then inserted into the pGEM-T esay vector. And the SARS-CoV-2 RNA with P4 G4 site was produced using T7 RNA polymerases from a standard in vitro transcription kit.
HEK293T cells were transfected with the RNA with P4 G4 site, nsp12, nsp7, and nsp8 plasmids at the ratio of 1:10:30:30. At 12 h post transfection, cells were re-seeded in 24-well plates (4 × 10^4/well) and treated with PDP or TMPyP4. After 48 h incubation, cells were collected and measured for RNA levels by qRT-PCR assays.

P4 G4 (P4-WT RNA) = test: CD spectra and CD melting of P4-WT with G4-specific ligands; format: binding, SARS-CoV-2
Description: For CD spectra and CD melting experiments, the DNA or RNA oligonucleotide samples pre-heated at 95 °C for 10 min were slowly cooled to room temperature, and then were incubated at 4 °C for 24 h. The samples were detected by JASCO J-810 spectropolarimeter equipped with a temperature-controlled water bath. In CD melting experiments, versus temperatures were collected at a heating rate of 1 °C/min.

P4 G4 [3] = format: cell-based, SARS-CoV-2; settings: 10 μM TMPyP4 or 2.5 μM PDP
SARS-CoV-2 [4] = test: microbe, parasite or virus in culture; format: cell-based; settings: for EC50: read-out: EC50 (half-maximal effective doses), antiviral; for EC90: read-out: EC90 (90% maximal effective doses), antiviral; for protein levels of nucleoprotein, Vero E6 cells: western blotting
P4 G4 [5] = test: In vitro translation (IVT) assays; format: biochemical, SARS-CoV-2
SARS-CoV-2 [6] = format: cell-based, SARS-CoV-2 (BetaCoV/Beijing/IME-BJ05-2020); settings: for protein levels of nucleoprotein, Calu-3 cells: western blotting
P14 G4 = test: RNA replication assay, RNA with P14 G4 in HEK293T cells; format: cell-based, SARS-CoV-2
SARS-CoV-2 [7] = settings: mouse, in vivo
P2 G4 = format: cell-based, SARS-CoV-2; settings: 10 μM, HEK293T cells
SARS-CoV-2 [8] = test: In vivo antiviral studies in SARS-CoV-2-infected Syrian hamsters
Description: The in vivo antiviral studies were carried out in an ABSL3 facility in Changchun
Veterinary Research Institute, Chinese Academy of Agricultural Sciences. All animal
studies were performed in strict accordance with the guidelines set by the Chinese
Regulations of Laboratory Animals and Laboratory Animal-Requirements of
Environment and Housing Facilities. All animals used in this study were chosen
antiviral in SARS-CoV-2 infection. First, we use a model of Syrian hamsters; and
second, we used a model of human angiotensin-converting enzyme 2 (hACE2)-KI/IOZ
10) or saline (n = 5) 1 h prior to infection. Then the hamsters were anesthetized and
infected intranasally with 105 TCID50 of SARS-CoV-2. For the low challenge dose
For the high challenge dose
The conditions of hamsters
including body weight were monitored daily until sacrifice. 3 days post infection (dpi),
the hamsters were humanely euthanized. The nasal wash, nasal tissues and lung tissues
were harvested for viral titration and pathological examination. Briefly, the nasal
tissues and lung tissues were weighed, and 1 gram of each tissue was placed into 1
mL of PBS containing 100 U/mL penicillin, making 10% weight/volume
homogenates. The tissue samples were homogenized by Tissue Lyser (QIAGEN,
Germany) and centrifuged at 8,000 rpm. The supernatants were then collected and
inoculated into Vero E6 cells, and viral RNA copy numbers and viral titration were
determined by qRT-PCR and TCID50, respectively. Meanwhile, the lungs were fixed
in formalin, and the fixed tissues were embedded in paraffin and stained with H&E
for pathological examination.
therapeutic treatment in vivo, the hamsters were pre-infected with the virus (105
intraperitoneal, i.p., 15 mg/kg)) 1 h prior to infection. Then the hamsters were
anesthetized and infected intranasally with 105 TCID50 of SARS-CoV-2. The conditions
of hamsters including body weight were monitored daily until sacrifice. 3 dpi, the
hamsters were humanely euthanized. The nasal wash, nasal tissues and lung tissues
were harvested for viral titration and pathological examination.
Lung histological analysis
Lung histological analysis was examined by an experienced pathologist. H&E stained
sections of lung from hamsters and mice were examined by implementing a semi
quantitative, 5 point grading scheme (0-within normal limits, 1-mild, 2-moderate,

P13 G4 = test: RNA replication assay, RNA with P13 G4 in HEK293T cells; format: cell-based, SARS-CoV-2
Vero E6 cells [9] = test: Cell viability, SRB assays; settings: Vero E6 cells, SRB assays
[10] = hamster plasma, 30 mg/kg i.n., single dose
P1 = format: cell-based, SARS-CoV-2; settings: 10 μM, HEK293T cells
[11] = 30 mg/kg i.n. once daily for 7 consecutive days
[12] = cited from earlier work
P3 G4 = format: cell-based, SARS-CoV-2; settings: 10 μM, HEK293T cells
P6 G4 = format: cell-based, SARS-CoV-2; settings: 10 μM, HEK293T cells
[13] = Cell viability, SRB assays; settings: African green monkey
[14] = Severe acute respiratory syndrome coronavirus 2, Vero C1008, Vero E6 cells, 10^3 TCID50 virus/mL, 72 h post infection, viral RNA copies/mL
[15] = dose-dependent, 72 h post infection
[16] = hamster, 15 mg/kg i.p., day 3 after infection

NCCOc1cc(C(=O)Nc2cc(OCCN3CCCC3)c3ccccc3n2)nc(C(=O)Nc2cc(OCCN3CCCC3)c3ccccc3n2)c1 [PDP]
protein levels of P4-WT (P4 G4 [1]): decreased the protein levels of P4-WT
CC10 (10% cytotoxic concentration) (Vero E6 cells [2]): 2.84 µM
CC50 (in vitro): 4.9 µM
replication of P4-WT RNA (RNA with P4 G4): significantly inhibit the replication of P4-WT
effect on the thermal stability of P4 G4 (P4 G4 (P4-WT RNA)): significantly enhanced the thermal stability
P4-WT EGFP fluorescence intensity (P4 G4 [3]): inhibited the P4-WT EGFP fluorescence intensity
P4-Mut EGFP fluorescence intensity (P4 G4 [3]): not P4-Mut
SI (selectivity index) (SARS-CoV-2 [4]): 7.78
EC50 (SARS-CoV-2 [4]; [14]): 0.63 µM
EC90 (SARS-CoV-2 [4]; [14]): > 2 µM
viral RNA copies and viral titers in Vero E6 cells (SARS-CoV-2 [4]; [15]): significantly reduced viral RNA copies and viral titers
IVT of P4-WT (P4 G4 [5]; P4-WT): inhibited the IVT of P4-WT

C[n+]1ccccc1-c1c2nc(c(-c3cccc[n+]3C)c3ccc([nH]3)c(-c3cccc[n+]3C)c3ccc([nH]3)c(-c3cccc[n+]3C)c3nc1C=C3)C=C2 [TMPyP2]
protein levels of P4-WT (P4 G4 [1]): no effects
protein levels of nucleoprotein, Calu-3 cells (SARS-CoV-2 [6]; 100 μM): not TMPyP2
replication of P4-WT RNA (RNA with P4 G4): no effects
effect on the thermal stability of P4 G4 (P4 G4 (P4-WT RNA)): no effects on the thermal stability
P4-WT EGFP fluorescence intensity (P4 G4 [3]): no effects
protein levels of nucleoprotein, Vero E6 cells (SARS-CoV-2 [4]; 100 μM): not TMPyP2

C[n+]1ccc(-c2c3nc(c(-c4cc[n+](C)cc4)c4ccc([nH]4)c(-c4cc[n+](C)cc4)c4nc(c(-c5cc[n+](C)cc5)c5ccc2[nH]5)C=C4)C=C3)cc1 [TMPyP4, 5,10,15,20-tetrakis-(N-methyl-4-pyridyl)porphine]
RNA replication, RNA with P14 G4 (P14 G4): suppressed RNA replication
viral loads in the nasal turbinate and lung tissues (SARS-CoV-2 [7]): significantly decreased the viral loads in the nasal turbinate and lung tissues
protein levels of P4-WT (P4 G4 [1]): decreased the protein levels of P4-WT
protein levels of nucleoprotein, Calu-3 cells (SARS-CoV-2 [6]; 100 μM): significantly suppress the protein levels of nucleoprotein
mRNA expression of pro-inflammatory cytokines and chemokines (SARS-CoV-2 [6]; Calu-3 cells, 100 μM, qRT-PCR): decrease the mRNA expression of pro-inflammatory cytokines and chemokines
virus infection in Calu-3 cells (SARS-CoV-2 [6]; human lung epithelial Calu-3 cells): inhibited virus infection efficiently
EGFP expression, P2-EGFP (P2 G4): inhibited EGFP expression
antiviral synergy with remdesivir in hamsters (SARS-CoV-2 [8]; TMPyP4 15 mg/kg i.n. combined with remdesivir 15 mg/kg i.p.): did not exhibit antiviral synergy with remdesivir in hamsters
decrease of mean viral loads (viral RNA copies/mL and TCID50/mL) in nasal wash, nasal turbinate and lung tissues (SARS-CoV-2 [8]; hamster, in vivo): 2–4 log10
lung damage (histopathology) (SARS-CoV-2 [8]; hamster, in vivo): significantly ameliorate lung damage
mRNA expression of inflammatory-associated genes in the lungs (SARS-CoV-2 [8]; hamster, in vivo): reduced mRNA expression of inflammatory-associated genes in the lungs
maximal viral RNA copies reduction in the nasal wash, nasal turbinate and lung tissues (SARS-CoV-2 [8]; hamster, in vivo, 15 mg/kg): ~ 3 log10
viral titers reduction in the nasal wash, nasal turbinate and lung tissues (SARS-CoV-2 [8]; hamster, in vivo, 15 mg/kg): ~ 3.5 log10
lung damage, therapeutic treatment (SARS-CoV-2 [8]; hamster, in vivo, 30 mg/kg): could ameliorate lung damage
viral loads in nasal wash, nasal turbinate and lung tissues, therapeutic treatment (SARS-CoV-2 [8]; hamster, in vivo, 30 mg/kg): significantly decreased the viral loads
RNA replication, RNA with P13 G4 (P13 G4): suppressed RNA replication
CC10 (10% cytotoxic concentration) (Vero E6 cells [9]): 727.7 µM
CC50 (Vero E6 cells [9]; read-out: CC50 (half-cytotoxic concentration)): > 1000 µM
Cmax [10]: 17880 ng/mL
area under the curve (AUC) [10]: 167.32 h⋅μg/mL
half-life (T1/2) [10]: 6.36 h
EGFP expression, P1-EGFP (P1): not P1
replication of P4-WT RNA (RNA with P4 G4): significantly inhibit the replication of P4-WT
effect on the thermal stability of P4 G4 (P4 G4 (P4-WT RNA)): significantly enhanced the thermal stability
toxicity in hamsters [11]: no noticeable toxicity in the hamsters
toxicity in the lung tissues of hamsters [11]: no noticeable toxicity in the lung tissues of hamsters
toxicity in the animals for short-term treatment [12]: no noticeable toxicity
EGFP expression, P3-EGFP (P3 G4): inhibited EGFP expression
P4-WT EGFP fluorescence intensity (P4 G4 [3]): inhibited the P4-WT EGFP fluorescence intensity
P4-Mut EGFP fluorescence intensity (P4 G4 [3]): not P4-Mut
SI (selectivity index) (SARS-CoV-2 [4]): > 112.74
antiviral activity of TMPyP4 after pre-transfection of ASOs targeting viral G4s (SARS-CoV-2 [4]): significantly inhibited by ASO targeting viral G4s
maximal viral RNA copies reduction in the Vero E6 cell culture supernatant (SARS-CoV-2 [4]): ~ 7 log10
maximal viral RNA copies reduction in the Vero E6 cell lysate (SARS-CoV-2 [4]): ~ 6 log10
maximal viral titers reduction in the culture supernatant of Vero E6 cell (SARS-CoV-2 [4]): ~ 6 log10
viral RNA copies and viral titers in Vero E6 cells (SARS-CoV-2 [4]): significantly reduced viral RNA copies and viral titers
viral loads in Vero E6 cells pre-infected with SARS-CoV-2 (SARS-CoV-2 [4]): significantly decreased the viral loads
protein levels of nucleoprotein, Vero E6 cells (SARS-CoV-2 [4]; 100 μM): significantly suppress the protein levels of nucleoprotein
time-of-addition: stage of action (SARS-CoV-2 [4]; Vero E6 cells, 100 μM): functioned at a stage post SARS-CoV-2 entry
antiviral synergy with remdesivir in vitro (SARS-CoV-2 [4]; combination of TMPyP4 and remdesivir): did not exhibit antiviral synergy
EC50 (SARS-CoV-2 [4]): 8.87 µM
EC90 (SARS-CoV-2 [4]): 13.2 µM
IVT of P4-WT (P4 G4 [5]): inhibited the IVT of P4-WT
EGFP expression, P6-EGFP (P6 G4): inhibited EGFP expression

CCC(CC)COC(=O)[C@H](C)N[P@](=O)(OC[C@H]1O[C@@](C#N)(c2ccc3c(N)ncnn23)[C@H](O)[C@@H]1O)Oc1ccccc1 [remdesivir]
maximal viral RNA copies reduction in the nasal wash, nasal turbinate and lung tissues (SARS-CoV-2 [8]; [16]): 1 log10
viral titers reduction in the nasal wash, nasal turbinate and lung tissues (SARS-CoV-2 [8]; [16]): ~ 1.5 log10
CC50 [13]: > 100 µM
CC10 (10% cytotoxic concentration) (Vero E6 cells [9]): 1.04 µM
maximal viral titers reduction in the culture supernatant of Vero E6 cell (SARS-CoV-2 [4]; 72 h post infection, TCID50): ~ 3 log10
maximal viral RNA copies reduction in the Vero E6 cell culture supernatant (SARS-CoV-2 [4]; 72 h post infection, qRT-PCR): ~ 4 log10
maximal viral RNA copies reduction in the Vero E6 cell lysate (SARS-CoV-2 [4]; 72 h post infection, qRT-PCR): 3 log10
EC50 (SARS-CoV-2 [4]; [14]): 1.33 µM
EC90 (SARS-CoV-2 [4]; [14]): 2.42 µM
SI (selectivity index) (SARS-CoV-2 [4]; Vero E6 cells, CC50/EC50): > 75.19
viral RNA copies and viral titers in Vero E6 cells (SARS-CoV-2 [4]; [15]): significantly reduced viral RNA copies and viral titers
